In ChEMBL document CHEMBL2046396, “Discovery and modification of sulfur-containing heterocyclic pyrazoline derivatives as potential novel class of β-ketoacyl-acyl carrier protein synthase III (FabH) inhibitors” (Bioorg Med Chem Lett, 2012):
Converted amounts (≈) assume the structure as drawn.

Tests used:
Pseudomonas aeruginosa = assay: Antibacterial activity against Pseudomonas aeruginosa ATCC 27853 after 24 hrs by MTT assay; assay type: functional; details: ATCC 27853, 24 h
Escherichia coli = assay: Antibacterial activity against Escherichia coli ATCC 25922 after 24 hrs by MTT assay; assay type: functional; details: ATCC 25922, 24 h
Staphylococcus aureus = assay: Antibacterial activity against Staphylococcus aureus ATCC 6538 after 24 hrs by MTT assay; assay type: functional; details: ATCC 6538, 24 h
Bacillus subtilis = assay: Antibacterial activity against Bacillus subtilis ATCC 530 after 24 hrs by MTT assay; assay type: functional; details: ATCC 530, 24 h
[1] = Toxicity in RBC assessed as concentration required for 30% hemolysis; assay type: cell-based; details: erythrocyte
[2] = Inhibition of Escherichia coli FabH expressed in Escherichia coli BL21(DE3) using holo-ACP as substrate after 25 mins

Structure (SMILES) | MIC (Pseudomonas aeruginosa) [µg/mL] | MIC (Escherichia coli) [µg/mL] | MIC (Staphylococcus aureus) [µg/mL] | MIC (Bacillus subtilis) [µg/mL] | HC30 [1] [mg/mL] | IC50 [2] [µM]
Cc1ccc(C2=NN(C3=NC(=O)CS3)C(c3ccccc3)C2)cc1 (stereo not given) | 12.5 (≈ 37.3 µM) | 12.5 (≈ 37.3 µM) | 6.25 (≈ 18.6 µM) | 12.5 (≈ 37.3 µM) |  | 
Fc1ccc(C2=NN(c3nc(-c4ccccc4)cs3)C(c3cccs3)C2)cc1 (stereo not given) | 12.5 (≈ 30.8 µM) | 12.5 (≈ 30.8 µM) | 12.5 (≈ 30.8 µM) | 50 (≈ 123 µM) |  | 
Brc1ccc(C2=NN(c3nc(-c4ccccc4)cs3)C(c3cccs3)C2)cc1 (stereo not given) | 12.5 (≈ 26.8 µM) | 6.25 (≈ 13.4 µM) | 12.5 (≈ 26.8 µM) | 6.25 (≈ 13.4 µM) | > 10 | 23.3
Clc1ccc(C2=NN(c3nc(-c4ccccc4)cs3)C(c3cccs3)C2)cc1Cl (stereo not given) | 12.5 (≈ 27.4 µM) | 50 (≈ 110 µM) | > 50 | 12.5 (≈ 27.4 µM) | > 10 | > 150
Cc1ccc(C2=NN(c3nc(-c4ccccc4)cs3)C(c3cccs3)C2)cc1 (stereo not given) | 1.56 (≈ 3.88 µM) | 3.13 (≈ 7.79 µM) | 1.56 (≈ 3.88 µM) | 3.13 (≈ 7.79 µM) | > 10 | 10.9
COc1ccc(C2=NN(c3nc(-c4ccccc4)cs3)C(c3cccs3)C2)cc1 (stereo not given) | 50 (≈ 120 µM) | 6.25 (≈ 15 µM) | 6.25 (≈ 15 µM) | 12.5 (≈ 29.9 µM) | > 10 | 30.6
COc1ccc(-c2csc(N3N=C(c4ccc(F)cc4)CC3c3cccs3)n2)cc1 (stereo not given) | 12.5 (≈ 28.7 µM) | 12.5 (≈ 28.7 µM) | 12.5 (≈ 28.7 µM) | 12.5 (≈ 28.7 µM) |  | 
COc1ccc(-c2csc(N3N=C(c4ccc(Br)cc4)CC3c3cccs3)n2)cc1 (stereo not given) | 12.5 (≈ 25.2 µM) | 6.25 (≈ 12.6 µM) | 12.5 (≈ 25.2 µM) | 12.5 (≈ 25.2 µM) |  | 
COc1ccc(-c2csc(N3N=C(c4ccc(Cl)c(Cl)c4)CC3c3cccs3)n2)cc1 (stereo not given) | 12.5 (≈ 25.7 µM) | 50 (≈ 103 µM) | 50 (≈ 103 µM) | 12.5 (≈ 25.7 µM) | > 10 | > 150
COc1ccc(-c2csc(N3N=C(c4ccc(C)cc4)CC3c3cccs3)n2)cc1 (stereo not given) | 12.5 (≈ 29 µM) | 6.25 (≈ 14.5 µM) | 12.5 (≈ 29 µM) | 6.25 (≈ 14.5 µM) |  | 
COc1ccc(C2=NN(c3nc(-c4ccc(OC)cc4)cs3)C(c3cccs3)C2)cc1 (stereo not given) | 12.5 (≈ 27.9 µM) | 12.5 (≈ 27.9 µM) | 12.5 (≈ 27.9 µM) | 50 (≈ 112 µM) |  | 
Fc1ccc(C2=NN(c3nc(-c4ccccc4)cs3)C(c3ccco3)C2)cc1 (stereo not given) | 12.5 (≈ 32.1 µM) | 6.25 (≈ 16 µM) | 6.25 (≈ 16 µM) | 50 (≈ 128 µM) | > 10 | 22.3
Brc1ccc(C2=NN(c3nc(-c4ccccc4)cs3)C(c3ccco3)C2)cc1 (stereo not given) | 3.13 (≈ 6.95 µM) | 3.13 (≈ 6.95 µM) | 1.56 (≈ 3.46 µM) | 3.13 (≈ 6.95 µM) | > 10 | 9.7
Clc1ccc(C2=NN(c3nc(-c4ccccc4)cs3)C(c3ccco3)C2)cc1Cl (stereo not given) | > 50 | 12.5 (≈ 28.4 µM) | 12.5 (≈ 28.4 µM) | 12.5 (≈ 28.4 µM) |  | 
Cc1ccc(C2=NN(c3nc(-c4ccccc4)cs3)C(c3ccco3)C2)cc1 (stereo not given) | 1.56 (≈ 4.05 µM) | 1.56 (≈ 4.05 µM) | 1.56 (≈ 4.05 µM) | 3.13 (≈ 8.12 µM) | > 10 | 4.6
COc1ccc(-c2csc(N3N=C(c4ccc(F)cc4)CC3c3ccco3)n2)cc1 (stereo not given) | 6.25 (≈ 14.9 µM) | 6.25 (≈ 14.9 µM) | 12.5 (≈ 29.8 µM) | 12.5 (≈ 29.8 µM) |  | 
COc1ccc(-c2csc(N3N=C(c4ccc(Br)cc4)CC3c3ccco3)n2)cc1 (stereo not given) | 6.25 (≈ 13 µM) | 6.25 (≈ 13 µM) | 12.5 (≈ 26 µM) | 6.25 (≈ 13 µM) | > 10 | 19.7
COc1ccc(-c2csc(N3N=C(c4ccc(Cl)c(Cl)c4)CC3c3ccco3)n2)cc1 (stereo not given) | > 50 | 50 (≈ 106 µM) | 12.5 (≈ 26.6 µM) | > 50 |  | 
COc1ccc(-c2csc(N3N=C(c4ccc(C)cc4)CC3c3ccco3)n2)cc1 (stereo not given) | 3.13 (≈ 7.53 µM) | 3.13 (≈ 7.53 µM) | 6.25 (≈ 15 µM) | 6.25 (≈ 15 µM) | > 10 | 15.7
O=C1CSC(N2N=C(c3ccc(F)cc3)CC2c2cccs2)=N1 (stereo not given) | > 50 | 6.25 (≈ 18.1 µM) | 12.5 (≈ 36.2 µM) | 12.5 (≈ 36.2 µM) |  | 
O=C1CSC(N2N=C(c3ccc(Br)cc3)CC2c2cccs2)=N1 (stereo not given) | 6.25 (≈ 15.4 µM) | 6.25 (≈ 15.4 µM) | 12.5 (≈ 30.8 µM) | 12.5 (≈ 30.8 µM) | > 10 | 27.1
O=C1CSC(N2N=C(c3ccc(Cl)c(Cl)c3)CC2c2cccs2)=N1 (stereo not given) | 12.5 (≈ 31.5 µM) | 12.5 (≈ 31.5 µM) | 12.5 (≈ 31.5 µM) | > 50 |  | 
Cc1ccc(C2=NN(C3=NC(=O)CS3)C(c3cccs3)C2)cc1 (stereo not given) | 6.25 (≈ 18.3 µM) | 6.25 (≈ 18.3 µM) | 3.13 (≈ 9.17 µM) | 6.25 (≈ 18.3 µM) | > 10 | 13.6
COc1ccc(C2=NN(C3=NC(=O)CS3)C(c3cccs3)C2)cc1 (stereo not given) | > 50 | 12.5 (≈ 35 µM) | 12.5 (≈ 35 µM) | 50 (≈ 140 µM) | > 10 | 89.9
O=C1CSC(N2N=C(c3ccc(F)cc3)CC2c2ccco2)=N1 (stereo not given) | 6.25 (≈ 19 µM) | 3.13 (≈ 9.5 µM) | 3.13 (≈ 9.5 µM) | 3.13 (≈ 9.5 µM) | > 10 | 8.4
O=C1CSC(N2N=C(c3ccc(Br)cc3)CC2c2ccco2)=N1 (stereo not given) | 12.5 (≈ 32 µM) | 6.25 (≈ 16 µM) | 6.25 (≈ 16 µM) | 12.5 (≈ 32 µM) |  | 
O=C1CSC(N2N=C(c3ccc(Cl)c(Cl)c3)CC2c2ccco2)=N1 (stereo not given) | 12.5 (≈ 32.9 µM) | 12.5 (≈ 32.9 µM) | 6.25 (≈ 16.4 µM) | 12.5 (≈ 32.9 µM) |  | 
Cc1ccc(C2=NN(C3=NC(=O)CS3)C(c3ccco3)C2)cc1 (stereo not given) | 6.25 (≈ 19.2 µM) | 3.13 (≈ 9.62 µM) | 6.25 (≈ 19.2 µM) | 3.13 (≈ 9.62 µM) | > 10 | 18.4
Cc1ccc(C2=NN(c3nc(-c4ccccc4)cs3)C(c3ccccc3)C2)cc1 (stereo not given) | 12.5 (≈ 31.6 µM) | 6.25 (≈ 15.8 µM) | 12.5 (≈ 31.6 µM) | 12.5 (≈ 31.6 µM) |  | 
NC[C@H]1O[C@H](O[C@H]2[C@H](O)[C@@H](O[C@H]3O[C@H](CO)[C@@H](O)[C@H](N)[C@H]3O)[C@H](N)C[C@@H]2N)[C@H](N)[C@@H](O)[C@@H]1O [BEKANAMYCIN] | 1.56 (≈ 3.23 µM) | 1.56 (≈ 3.23 µM) | 3.13 (≈ 6.47 µM) | 3.13 (≈ 6.47 µM) |  | 
